{"source": "patent US11484032B2", "about": "“Compositions for inhibition of insect sensing” (Vanderbilt University, priority 2011, dated 2022)", "key": {"AgORco+AgOR10": {"molecular_target": "T1, AgORco+AgOR10 (Anopheles gambiae, UniProt Q7QCC7)", "T1 construct": "expressed in transfected cells", "T1 sequence (Q7QCC7 1-478)": "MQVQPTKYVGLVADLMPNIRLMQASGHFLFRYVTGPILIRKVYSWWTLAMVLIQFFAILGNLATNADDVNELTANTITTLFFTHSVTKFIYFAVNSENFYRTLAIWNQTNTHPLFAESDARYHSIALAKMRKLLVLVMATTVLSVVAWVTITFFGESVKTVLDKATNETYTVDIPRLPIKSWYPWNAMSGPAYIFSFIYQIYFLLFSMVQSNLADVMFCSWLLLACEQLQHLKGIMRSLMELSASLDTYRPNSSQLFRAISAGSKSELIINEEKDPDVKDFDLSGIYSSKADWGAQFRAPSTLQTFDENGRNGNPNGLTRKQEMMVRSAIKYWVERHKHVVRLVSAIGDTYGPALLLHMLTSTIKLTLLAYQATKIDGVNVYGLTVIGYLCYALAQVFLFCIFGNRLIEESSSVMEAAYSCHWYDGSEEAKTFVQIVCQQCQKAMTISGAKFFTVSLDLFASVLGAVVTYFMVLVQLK", "assay": "Fluo-4 Ca2+ imaging, HEK293 cells expressing Orco+AgOR10", "format": "cell-based", "details": "AgORco+AgOR10 cells; not seen in control cells", "outline": "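Stable Flp-In T-REx 293 lines co-expressing Orco and OR, induced overnight with 0.3 u-g/ul tetracycline, loaded with 1.8 uM Fluo-4 AM plus 2.5 mM probenecid for 45 min at 37 °C. Ca2+ mobilization read after 20 s baseline and compound addition; Max/Min ratios normalized to the maximum responder.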"}, "[1]": {"tested_on": "CO2 sensitive CpA neuron (does not express AgORco)", "assay": "Single sensillum recording, capitate peg sensilla, CpA neuron", "format": "in vivo, Anopheles gambiae", "details": "CO2 pulse at completion of assay", "description": "Single sensillum recordings were performed on 4-7 day old, non-bloodfed Anopheles gambiae females maintained on 10% sucrose and a 12/12 light dark cycle. Legs, wings and antennae were removed from cold-anesthetized females that were then restrained on double-stick tape with thread. A glass reference electrode filled with Sensillar lymph ringers (SLR)(Xu, 2005) was placed in the eye and the recording electrode filled with DMSO or VUAA1 diluted in SLR was used to puncture sensilla at their base. Responses were recorded and digitized using a Syntech IDAC-4 and analyzed with AutoSpike software (Syntech). New glass recording pipettes were used for every recording. Data was sampled at 12 kHz.\nThe inventors next performed single unit, extracellular electrophysiological recordings on adult female An. gambiae to determine whether VUAA1 could activate AgORco-expressing odorant receptor neurons (ORNs) in vivo. ORNs, which express AgORco and a conventional OR are enclosed within the hair-like sensilla present on olfactory tissues. […] CpA is clearly distinguished from CpB/C by its large action potential amplitude. The action potential amplitudes of CpB and CpC are much smaller and in some preparations indistinguishable from each other; as a result, the spike activity of CpB and CpC neurons were binned for data analysis. […]"}}, "data": [{"molecule": "CCc1ccc(NC(=O)CSc2nnc(-c3cccnc3)n2CC)cc1", "note": "[VUAA1, 2-((4-ethyl-5-(pyridin-3-yl)-4H-1,2,4-triazol-3-yl)thio)-N-(4-ethylphenyl)acetamide]", "values": [{"measurement": "response in plate-based calcium imaging", "setting": "AgORco+AgOR10", "result": "concentration-dependent responses"}, {"measurement": "CpA neuron activity", "setting": "[1]", "result": "unchanged"}]}]}
